# Assay results reported in US20250367185A1, “TRANSLESION SYNTHESIS POLYMERASE INHIBITORS AND USES THEREOF” (THE UNIVERSITY OF VERMONT AND STATE AGRICULTURAL COLLEGE, priority 2022, published 2025).
# Experiments:
# [1] = system: SARS-COV-2 variants (alpha, beta, gamma, delta, BA.1, BA.2) and USA-WA1/2020; type: cell-based; conditions: 10 μM, 48 hours, A549-ACE2+ cells
# [2] = system: SARS-COV-2 variants (alpha, beta, gamma, delta, BA.1, BA.2) and USA-WA1/2020; type: cell-based; conditions: 10 μM, 48 hours, A549-ACE2+ cells; remark: listed apart in the source
smiles,measurement,setting,value
"CC(C)CC(=O)c1c(Nc2ccc(C(=O)O)cc2Cl)[nH]c2c(Cl)ccc([N+](=O)[O-])c2c1=O [Compound 1, 3-chloro-4-((8-chloro-3-(3-methylbutanoyl)-5-nitro-4-oxo-1,4-dihydroquinolin-2-yl)amino)benzoic acid]",percentage of viral nucleocapsid-positive cells,[1],reduces
same,viral mRNA levels,[2],reduces
